Experimental data as given in patent US9511136B2, “Immunogenic compounds comprising HIV GP41 peptide coupled to CRM197 carrier protein” ([…], priority 2012, dated 2016).
“And” between values parts separate entries of the source, which are not always exact repeats. Equal values may be shown once.

Test system: NKp44L at the surface of activated human CD4+ T cells
Experiment: Inhibition by antiserums of 3S16Nter-induced NKp44L expression at the surface of activated human CD4+ T cells (cytofluorometry)
Type: cell-based
Excerpt: The aim of Example 5 was to test the ability of the antiserums of a rat vaccinated with the adjuvanted 3S drug substance to inhibit the expression of NKp44L at the surface of activated human CD4+ T cells induced by the 3S peptide, namely the 3S16Nter peptide.
CD4+ T cells were sorted from human PBMC and activated for 3 days with PHA (Thermo Fisher Scientific, Waltham, USA) then expanded for three days with recombinant IL-2 (Novartis, Horsham, United Kingdom). The cells were put in presence of 3S16Nter peptides (Covalab, Villeurbanne, France) in order to induce the expression of NKp44L at their surface.
The expression of NKp44L at the surface of the cells was measured using the intensity of a specific fluorescent staining measured by cytofluorometry.
The inhibition of NKp44L expression by the antiserums of vaccinated rat was studied.
The antisera were tested at different dilutions in triplicate.
Human CD4+ T cells were obtained by magnetic separation from a leuko-platelet residue pouch ordered from the EFS (“Etablissement Francais du Sang”).
The human CD4+ T cells were sorted from the pouch according to the following protocol: • 1. The pouch is distributed in four Falcon tubes of 50 mL: 4×15 mL • 2. Complete to 50 mL with RPMI1640+glutamax medium (ref 72400-054, GIBCO, Life Technologies, Carlsbad, USA) • 3. […]

In the case of H-CPWNASWSNKSLDDIW-OH [3S16Nter], the “PE X-mean fluorescence” value (no serum, with 3S16Nter peptides (5 μg/mL), single wells) was 59.6 and 64.7 and the “NKp44L expression on activated CD4+ T cells (mean level)” value (without serum, in the presence of 3S16Nter peptides) was 62.
